Experiment [1] deals with T1, 1-deoxy-D-xylulose 5-phosphate reductoisomerase (Escherichia coli K-12, UniProt P45568).
T1 sequence (P45568 whole entry): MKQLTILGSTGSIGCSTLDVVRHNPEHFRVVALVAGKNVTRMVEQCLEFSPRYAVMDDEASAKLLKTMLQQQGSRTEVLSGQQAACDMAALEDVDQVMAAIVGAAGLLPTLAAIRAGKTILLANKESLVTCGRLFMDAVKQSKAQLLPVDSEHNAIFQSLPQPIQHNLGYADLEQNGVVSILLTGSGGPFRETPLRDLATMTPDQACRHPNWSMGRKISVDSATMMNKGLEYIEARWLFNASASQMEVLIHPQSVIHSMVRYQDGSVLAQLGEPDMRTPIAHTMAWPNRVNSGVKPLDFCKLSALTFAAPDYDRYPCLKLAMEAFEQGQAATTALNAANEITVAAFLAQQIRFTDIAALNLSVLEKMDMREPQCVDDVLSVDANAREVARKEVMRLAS
As to the kind of experiment: Inhibition of Escherichia coli DXR assessed as inhibition constant pre-incubated for 2 mins in presence of NADPH by spectrophotometric assay.

Experiment [2] deals with Escherichia coli. As to the kind of experiment: Antimicrobial activity against Escherichia coli deltaGlpT JW2234-2 assessed as minimal inhibitory concentration incubated for 18 hrs by microdilution assay. Type of experiment: functional. (In broth dilution the organism is exposed to a series of concentrations in liquid medium.)
Experiment [3] concerns Escherichia coli. As to the kind of experiment: Antimicrobial activity against Escherichia coli BW25113 assessed as minimal inhibitory concentration incubated for 18 hrs by microdilution assay. In kind it is functional.
The target in experiment [4] is T1, 1-deoxy-D-xylulose 5-phosphate reductoisomerase. As to the kind of experiment: Inhibition of recombinant Escherichia coli DXR in presence of NADPH.
Experiment [5] concerns Plasmodium falciparum. As to the kind of experiment: Antiplasmodial activity against Plasmodium falciparum K1 infected in human erythrocyte assessed as assessed as inhibition of parasite growth. Type of experiment: functional, organism-based.
Experiment [6] deals with T1, 1-deoxy-D-xylulose 5-phosphate reductoisomerase. Briefly: Inhibition of His-tagged Escherichia coli DXR using DXP as substrate incubated for 1 min in presence of NADPH by UV-Vis spectrophotometric assay.

In brackets after ≈: the same amount, converted by molar mass.

Usually IC50 stands for the concentration at which inhibition is half-maximal. Usually MIC90 stands for the lowest concentration that inhibits either 90% of growth or 90% of the strains tested, depending on the study.

As to `O=C(CCCP(=O)(O)O)NO`, the IC50 in experiment [1] worked out at 0.17 µM.
For `CN(O)C(=O)CCCP(=O)(O)O`, in experiment [1], the IC50 worked out at 0.048 µM.
In the case of `CN1CC(=O)OB(CCCP(=O)(O)O)OC(=O)C1`, the MIC90 in experiment [2] worked out at 52 µg/mL (≈ 186 µM); in experiment [3], 63 µg/mL (≈ 226 µM).
For `CN(O)C(=O)CCCC(=O)O`, the IC50 in experiment [4] stood at 25 µM.
For `CS(=O)(=O)c1ccccc1NC(=O)CCCP(=O)(O)O`, in experiment [5], the 50% inhibitory concentration (IC50) is above 64 µM.
As to `O=P(O)(O)CCCB(O)O`, the IC50 in experiment [6] stood at 125 µM. For the same compound, the MIC90 in experiment [2] is 37 µg/mL (≈ 220 µM); in experiment [3], 53 µg/mL (≈ 316 µM).
As to `CC(=O)c1ccccc1NC(=O)CCCP(=O)(O)O`, the IC50 in experiment [5] is above 64 µM.
On the same count and under the same terms, the same measure for `O=C(CCCP(=O)(O)O)Nc1ccccc1F`: above 64 µM.

The record behind these values is ChEMBL document CHEMBL5226280, “Non-hydroxamate inhibitors of 1-deoxy-d-xylulose 5-phosphate reductoisomerase (DXR): A critical review and future perspective” (Eur J Med Chem, 2021).
